The source of these data is the SangsterLogP compilation.

Structures are written as SMILES. Where a SMILES comes first, the peptide text is derived from it. The star is where a group is joined. X1 = O=C(CCCCSc1ncnc2nc[nH]c12)*

The nature of this data set: from Bachrata, M.; Bezakova, Z.; Pesák, M.; Blesova, M. (1983). Study of physicochemical properties of substances with cancerostatic effect. II. Study of lipo-hydrophilic parameters. Acta Fac. Pharm. …. Conditions: pH 7.0.
What is called logD is the decadic logarithm of the distribution of all forms, ionised or not, between an organic phase and buffer at a given pH. For the compound `CCOC(=O)C(NC(=O)CCCCSc1ncnc2nc[nH]c12)c1ccccc1` (configuration not stated), the logD was 1.13.

`CCOC(=O)CNC(=O)CNC(=O)CNC(=O)CCCCSc1ncnc2nc[nH]c12` showed a logD of 0.21.

Turning to `CCOC(=O)C(C)NC(=O)CCCCSc1ncnc2nc[nH]c12` (configuration not stated), the logD stood at 1.51.

Regarding `CCCOC(=O)CNC(=O)CCCCSc1ncnc2nc[nH]c12`, the logD was found to be 1.37.

Compound `c1ncc2[nH]cnc2n1` had a logD of -0.21.

In turn, `CCCCOC(=O)CNC(=O)CCCCSc1ncnc2nc[nH]c12` came in with a logD of 1.39.

For `CCOC(=O)[C@H](CC(C)C)NC(=O)CNC(=O)CNC(=O)CCCCSc1ncnc2nc[nH]c12`, the logD turned out to be 1.07.

`CCOC(=O)CNC(=O)CNC(=O)CCCCSc1ncnc2nc[nH]c12` gave a logD of 0.5.

`CCOC(=O)CNC(=O)CNC(=O)CNC(=O)CNC(=O)CCCCSc1ncnc2nc[nH]c12` (X1-GGGG-OEt): the logD was -0.23.

In turn, `CCOC(=O)C(NC(=O)CCCCSc1ncnc2[nH]cnc12)C(C)C` (racemic) returned a logD of 1.89.

In turn, `CCOC(=O)C[C@H](NC(=O)CCCCSc1ncnc2nc[nH]c12)C(=O)OCC` displayed a logD of 1.33.

For `CCOC(=O)CNC(=O)CCCCSc1ncnc2nc[nH]c12`, the logD stood at 0.91.
